In paper PMC6268252, “Synthesis and Antiviral Activity of Conformational Analogues of Leucamide A” (Molecules, 2012):
Where two headings read alike, the source gives them in different places.

Experiments:
[1] = test system: Influenza A virus H3N2 (A3 China/15/90); experiment: Inhibition of influenza A virus replication (virus-induced CPE) in MDCK cells; type: cell-based; conditions: influenza A H3N2 (A3 China/15/90); for activity against influenza A virus (in words): MDCK cells; for IC50: concentration required to reduce virus-induced CPE in MDCK cells by 50%
in vitro = conditions: dog
[2] = test system: Influenza A virus H3N2 (A3 China/15/90); parameters: method as in PMID 16183283; conditions: previously reported active compound; read-out: IC50 against influenza A virus; cited from earlier work
[3] = test system: influenza A virus, herpes simplex type 2 virus (HSV2), hepatitis B virus (HBV); parameters: method as in PMID 16183283, PMID 18663717; conditions: reported before; cited from earlier work
several tumor cell lines = test system: several tumor cell lines; parameters: method as in PMID 12098321; conditions: cited from earlier work

SMILES	activity against influenza A virus (in words) [1]	CC50 (in vitro) [µM]	IC50 [1] [µM]	IC50 [2] [µM]	antiviral activity (in words) [3]	cytotoxicity toward tumor cell lines (in words) (several tumor cell lines)
Cc1oc2nc1C(=O)N[C@@H](C)c1nc(co1)C(=O)NCC(=O)N[C@@H](C(C)C)c1nc-2cs1 [Compound 2]	inactive	> 273				
Cc1oc2nc1C(=O)N[C@@H](C)c1nc(co1)C(=O)NCCC(=O)N[C@@H](C(C)C)c1nc-2cs1 [Compound 3]		> 265	163			
Cc1oc2nc1C(=O)N[C@@H](C)c1nc(co1)C(=O)NCCCC(=O)N[C@@H](C(C)C)c1nc-2cs1 [Compound 4]		595	115			
Cc1oc2nc1C(=O)N[C@@H](C)c1nc(co1)C(=O)NCCCCC(=O)N[C@@H](C(C)C)c1nc-2cs1 [Compound 5]		578	258			
Cc1oc2nc1C(=O)N[C@@H](C)c1nc(co1)C(=O)NCCCCCC(=O)N[C@@H](C(C)C)c1nc-2cs1 [Compound 6]		374	41			
COc1ccccc1C(=O)N[C@H](c1nc(-c2nc(C(=O)O)c(C)o2)cs1)C(C)C [Compound 10]				70		
Cc1oc2nc1C(=O)N[C@@H](C)c1nc(co1)C(=O)N[C@@H](CC(C)C)C(=O)N1CCC[C@H]1C(=O)N[C@@H](C(C)C)c1nc-2cs1 [Leucamide A]	inactive	787			did not show any antiviral activity	moderately cytotoxic
NC(=O)c1ncn([C@@H]2O[C@H](CO)[C@@H](O)[C@H]2O)n1 [Ribavirin, reference compound]		> 8200	16			
